How the values were obtained:
Type in all cases: binding
[1] = biological target: SW480 colon carcinoma cells lysate proteins (Homo sapiens, UniProt O15372); conditions: PreyGene EIF3H
[2] = biological target: T1, SW480 colon carcinoma cells lysate proteins (Homo sapiens, UniProt P00558); conditions: PreyGene PGK1
T1 sequence (P00558 1-417): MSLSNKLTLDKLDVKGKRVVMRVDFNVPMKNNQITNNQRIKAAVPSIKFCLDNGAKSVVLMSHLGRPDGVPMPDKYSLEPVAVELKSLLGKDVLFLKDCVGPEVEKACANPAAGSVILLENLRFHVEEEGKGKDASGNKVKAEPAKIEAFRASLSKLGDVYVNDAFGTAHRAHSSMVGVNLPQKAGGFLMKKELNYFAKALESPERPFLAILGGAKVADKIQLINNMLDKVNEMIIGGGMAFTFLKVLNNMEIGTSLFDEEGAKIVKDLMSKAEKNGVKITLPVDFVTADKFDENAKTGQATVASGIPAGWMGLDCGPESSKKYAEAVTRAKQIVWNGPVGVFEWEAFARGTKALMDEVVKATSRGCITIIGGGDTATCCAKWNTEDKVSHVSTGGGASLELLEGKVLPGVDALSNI

[3] = biological target: SW480 colon carcinoma cells lysate proteins (Homo sapiens, UniProt Q01518); conditions: PreyGene CAP1
SW480 colon carcinoma cells lysate proteins (Homo sapiens, UniProt Q01518), sequence (Q01518 whole entry): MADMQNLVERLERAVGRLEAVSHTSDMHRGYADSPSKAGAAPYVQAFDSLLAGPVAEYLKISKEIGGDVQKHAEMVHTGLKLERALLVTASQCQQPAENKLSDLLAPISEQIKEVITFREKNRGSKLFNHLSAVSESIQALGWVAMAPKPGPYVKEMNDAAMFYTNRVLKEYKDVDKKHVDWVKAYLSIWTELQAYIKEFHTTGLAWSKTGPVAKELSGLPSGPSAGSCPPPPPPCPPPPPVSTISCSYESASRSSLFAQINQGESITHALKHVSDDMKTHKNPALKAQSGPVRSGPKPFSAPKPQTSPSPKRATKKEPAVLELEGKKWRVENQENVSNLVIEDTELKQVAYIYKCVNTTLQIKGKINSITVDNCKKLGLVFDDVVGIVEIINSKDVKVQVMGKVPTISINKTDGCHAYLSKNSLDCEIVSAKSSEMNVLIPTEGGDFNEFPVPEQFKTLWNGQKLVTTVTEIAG

[4] = biological target: SW480 colon carcinoma cells lysate proteins (Homo sapiens, UniProt Q14204); conditions: PreyGene DYNC1H1
[5] = biological target: SW480 colon carcinoma cells lysate proteins (Homo sapiens, UniProt Q14315); conditions: PreyGene FLNC; SW480 cells
SW480 colon carcinoma cells lysate proteins (Homo sapiens, UniProt Q14315), sequence (Q14315 whole entry): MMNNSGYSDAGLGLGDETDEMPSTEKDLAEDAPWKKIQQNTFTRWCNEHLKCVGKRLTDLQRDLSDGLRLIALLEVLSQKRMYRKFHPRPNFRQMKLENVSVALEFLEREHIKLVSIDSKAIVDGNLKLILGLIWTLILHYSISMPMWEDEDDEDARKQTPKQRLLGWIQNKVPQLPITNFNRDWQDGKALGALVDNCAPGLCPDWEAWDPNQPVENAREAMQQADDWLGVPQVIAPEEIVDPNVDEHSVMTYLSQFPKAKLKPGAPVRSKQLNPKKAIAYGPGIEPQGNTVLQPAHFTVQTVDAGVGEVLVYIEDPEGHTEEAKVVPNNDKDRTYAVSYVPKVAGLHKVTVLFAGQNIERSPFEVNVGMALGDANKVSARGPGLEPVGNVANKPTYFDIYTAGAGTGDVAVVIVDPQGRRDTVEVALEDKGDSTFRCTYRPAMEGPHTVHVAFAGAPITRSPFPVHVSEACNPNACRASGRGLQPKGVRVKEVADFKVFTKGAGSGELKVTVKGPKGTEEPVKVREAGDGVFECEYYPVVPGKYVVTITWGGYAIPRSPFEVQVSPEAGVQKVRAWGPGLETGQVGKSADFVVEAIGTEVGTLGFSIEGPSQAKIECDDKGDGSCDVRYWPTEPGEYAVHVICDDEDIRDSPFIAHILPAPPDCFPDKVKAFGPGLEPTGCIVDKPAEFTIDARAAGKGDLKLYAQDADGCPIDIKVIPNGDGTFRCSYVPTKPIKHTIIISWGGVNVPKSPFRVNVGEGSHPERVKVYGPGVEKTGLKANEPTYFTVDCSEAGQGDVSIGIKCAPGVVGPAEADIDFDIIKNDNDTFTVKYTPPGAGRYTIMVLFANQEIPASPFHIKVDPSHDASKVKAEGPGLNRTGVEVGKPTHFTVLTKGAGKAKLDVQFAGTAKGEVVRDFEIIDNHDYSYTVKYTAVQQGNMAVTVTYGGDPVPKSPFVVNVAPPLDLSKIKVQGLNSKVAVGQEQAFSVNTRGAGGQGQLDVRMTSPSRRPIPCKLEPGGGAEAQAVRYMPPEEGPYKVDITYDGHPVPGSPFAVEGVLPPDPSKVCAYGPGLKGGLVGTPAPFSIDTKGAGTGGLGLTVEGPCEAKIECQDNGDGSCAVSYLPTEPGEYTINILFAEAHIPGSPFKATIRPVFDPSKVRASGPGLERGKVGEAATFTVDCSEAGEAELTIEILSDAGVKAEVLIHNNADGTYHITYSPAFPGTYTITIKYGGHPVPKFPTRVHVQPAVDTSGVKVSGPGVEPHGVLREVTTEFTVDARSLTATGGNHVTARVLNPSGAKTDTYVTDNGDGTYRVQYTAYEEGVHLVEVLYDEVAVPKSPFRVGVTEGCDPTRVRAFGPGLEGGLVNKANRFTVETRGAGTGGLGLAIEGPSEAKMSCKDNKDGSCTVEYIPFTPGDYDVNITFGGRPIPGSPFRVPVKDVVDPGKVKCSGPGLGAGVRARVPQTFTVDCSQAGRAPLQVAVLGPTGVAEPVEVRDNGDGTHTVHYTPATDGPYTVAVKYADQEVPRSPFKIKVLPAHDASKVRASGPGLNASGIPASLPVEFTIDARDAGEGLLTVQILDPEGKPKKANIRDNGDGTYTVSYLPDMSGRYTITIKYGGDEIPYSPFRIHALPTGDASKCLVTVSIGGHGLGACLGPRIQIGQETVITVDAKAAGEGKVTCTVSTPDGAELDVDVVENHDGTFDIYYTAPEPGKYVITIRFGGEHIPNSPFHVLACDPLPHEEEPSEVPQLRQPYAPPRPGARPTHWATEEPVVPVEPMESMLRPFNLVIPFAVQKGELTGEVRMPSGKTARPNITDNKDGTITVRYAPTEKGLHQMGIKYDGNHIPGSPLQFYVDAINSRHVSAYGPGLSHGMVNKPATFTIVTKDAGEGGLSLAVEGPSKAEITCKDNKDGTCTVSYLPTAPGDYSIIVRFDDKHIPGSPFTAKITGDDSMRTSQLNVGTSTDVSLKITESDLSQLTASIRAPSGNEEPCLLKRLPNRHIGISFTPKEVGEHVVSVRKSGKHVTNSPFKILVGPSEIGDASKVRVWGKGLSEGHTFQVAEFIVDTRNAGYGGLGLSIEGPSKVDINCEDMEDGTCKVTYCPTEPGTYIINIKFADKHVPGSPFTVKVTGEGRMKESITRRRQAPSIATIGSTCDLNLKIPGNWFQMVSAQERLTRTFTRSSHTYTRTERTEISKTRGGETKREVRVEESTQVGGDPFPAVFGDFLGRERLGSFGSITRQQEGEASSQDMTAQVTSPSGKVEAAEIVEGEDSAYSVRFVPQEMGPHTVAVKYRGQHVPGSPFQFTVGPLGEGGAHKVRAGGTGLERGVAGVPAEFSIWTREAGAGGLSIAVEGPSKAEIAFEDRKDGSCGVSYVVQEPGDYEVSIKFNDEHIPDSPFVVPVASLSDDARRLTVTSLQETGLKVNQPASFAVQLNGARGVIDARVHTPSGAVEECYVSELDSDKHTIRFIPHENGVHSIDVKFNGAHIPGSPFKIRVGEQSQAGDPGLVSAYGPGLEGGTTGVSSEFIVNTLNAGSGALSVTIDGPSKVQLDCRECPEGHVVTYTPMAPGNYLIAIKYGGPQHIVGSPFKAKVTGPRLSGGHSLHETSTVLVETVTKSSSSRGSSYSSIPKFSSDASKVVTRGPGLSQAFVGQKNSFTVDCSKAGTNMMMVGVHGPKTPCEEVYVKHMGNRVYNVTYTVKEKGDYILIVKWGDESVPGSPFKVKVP

[6] = biological target: T2, SW480 colon carcinoma cells lysate proteins (Homo sapiens, UniProt Q9UHD8); conditions: PreyGene 09-Sep
T2 sequence (Q9UHD8 1-586): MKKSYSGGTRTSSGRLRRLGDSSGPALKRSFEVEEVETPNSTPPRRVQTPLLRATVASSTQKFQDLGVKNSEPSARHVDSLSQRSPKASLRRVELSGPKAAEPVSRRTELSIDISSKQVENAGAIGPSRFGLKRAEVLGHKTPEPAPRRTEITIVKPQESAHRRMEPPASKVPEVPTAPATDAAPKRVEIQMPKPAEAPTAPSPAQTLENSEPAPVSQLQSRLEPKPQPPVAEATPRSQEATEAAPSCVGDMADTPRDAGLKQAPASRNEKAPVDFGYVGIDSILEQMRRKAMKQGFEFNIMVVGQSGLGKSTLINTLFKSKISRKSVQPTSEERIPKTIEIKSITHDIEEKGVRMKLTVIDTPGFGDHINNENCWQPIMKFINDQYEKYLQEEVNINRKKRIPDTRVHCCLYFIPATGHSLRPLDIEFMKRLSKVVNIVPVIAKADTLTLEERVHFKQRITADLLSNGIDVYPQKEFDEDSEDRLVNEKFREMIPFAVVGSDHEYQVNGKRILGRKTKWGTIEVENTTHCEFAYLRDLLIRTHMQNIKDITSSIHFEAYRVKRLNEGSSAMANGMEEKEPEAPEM

[7] = biological target: T3, SW480 colon carcinoma cells lysate proteins (Homo sapiens, UniProt Q9Y617); conditions: PreyGene PSAT1
T3 sequence (Q9Y617 1-370): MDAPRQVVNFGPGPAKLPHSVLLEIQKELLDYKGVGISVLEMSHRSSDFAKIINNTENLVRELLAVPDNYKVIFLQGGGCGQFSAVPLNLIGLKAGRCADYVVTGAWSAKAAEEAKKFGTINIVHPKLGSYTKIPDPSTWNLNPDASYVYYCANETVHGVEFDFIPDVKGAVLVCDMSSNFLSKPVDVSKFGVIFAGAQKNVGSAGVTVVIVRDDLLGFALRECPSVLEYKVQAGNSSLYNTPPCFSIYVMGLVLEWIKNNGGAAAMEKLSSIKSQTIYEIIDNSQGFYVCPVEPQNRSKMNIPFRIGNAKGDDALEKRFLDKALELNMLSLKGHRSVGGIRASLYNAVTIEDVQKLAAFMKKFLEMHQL

SW480 colon carcinoma cells lysate proteins (Homo sapiens, UniProt O15372), sequence (O15372 whole entry): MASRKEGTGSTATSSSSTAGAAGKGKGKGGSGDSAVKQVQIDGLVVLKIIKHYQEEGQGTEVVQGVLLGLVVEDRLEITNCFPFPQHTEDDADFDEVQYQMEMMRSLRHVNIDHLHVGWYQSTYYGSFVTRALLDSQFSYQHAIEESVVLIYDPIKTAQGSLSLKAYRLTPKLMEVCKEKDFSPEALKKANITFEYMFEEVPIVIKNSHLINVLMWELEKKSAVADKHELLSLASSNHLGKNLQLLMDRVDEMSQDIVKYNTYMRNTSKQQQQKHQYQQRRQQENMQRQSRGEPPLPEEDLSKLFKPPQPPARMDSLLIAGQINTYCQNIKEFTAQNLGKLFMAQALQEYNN

In the case of C[C@H](Oc1cc(-c2cnn(C3CCNCC3)c2)cnc1N)c1c(Cl)ccc(F)c1Cl [(5)-crizotinib], the AvgP [1] is reported as 0.2043, the “SC.Exp. 1-1” value [1] is reported as 3 and the “SC.Exp. 1-2” value [1] is reported as 0. The “SC.Exp. 2-1” value [1] was 0, the “SC.Exp. 2-2” value [1] was 0 and the “Sum (SC.Exp.)” value [1] was 3. For the same compound, the AvgP [2] was 0.2466, the “SC.Exp. 1-1” value [2] was 14 and the “SC.Exp. 1-2” value [2] was 12. For the same compound, the “SC.Exp. 2-1” value [2] was 0, the “SC.Exp. 2-2” value [2] was 0 and the “Sum (SC.Exp.)” value [2] was 26. For the same compound, the AvgP [3] was 0.3081, the “SC.Exp. 1-1” value [3] was 3 and the “SC.Exp. 1-2” value [3] was 2. The “SC.Exp. 2-1” value [3] was 0, the “SC.Exp. 2-2” value [3] was 0 and the “Sum (SC.Exp.)” value [3] was 5. For the same compound, the AvgP [4] was 0.2458, the “SC.Exp. 1-1” value [4] was 13 and the “SC.Exp. 1-2” value [4] was 13. For the same compound, the “SC.Exp. 2-1” value [4] was 2, the “SC.Exp. 2-2” value [4] was 2 and the “Sum (SC.Exp.)” value [4] was 30. The AvgP [5] was 0, the “SC.Exp. 1-1” value [5] was 0 and the “SC.Exp. 1-2” value [5] was 0. The “SC.Exp. 2-1” value [5] was 0, the “SC.Exp. 2-2” value [5] was 1 and the “SC.Exp. Sum” value [5] was 1. For the same compound, the AvgP [6] was 0.323, the “SC.Exp. 1-1” value [6] was 1 and the “SC.Exp. 1-2” value [6] was 2. For the same compound, the “SC.Exp. 2-1” value [6] was 0, the “SC.Exp. 2-2” value [6] was 2 and the “Sum (SC.Exp.)” value [6] was 5. For the same compound, the AvgP [7] was 0.3916, the “SC.Exp. 1-1” value [7] was 3 and the “SC.Exp. 1-2” value [7] was 3. For the same compound, the “SC.Exp. 2-1” value [7] was 0, the “SC.Exp. 2-2” value [7] was 0 and the “Sum (SC.Exp.)” value [7] was 6.
